This is an account of results in ChEMBL document CHEMBL5331103, “Discovery of novel 2-hydroxyl-4-benzyloxybenzyl aniline derivatives as potential multifunctional agents for the treatment of Parkinson's disease” (Eur J Med Chem, 2023).

Calls of active or inactive are those of the source. The rule behind the calls is not given here.

Data set [1] concerns Mus musculus. The data set is described as follows: Anti-parkinson's disease activity in MPTP-induced C57BL/6C mouse model assessed as increase in traction test score at 53.5 mg/kg, IG preadministered with MPTP for 5 days followed by compound administration for 3 weeks and measured 1 hrs post last dose by traction test. Type of data set: functional, organism-based.
A further data set concerns BV-2. Nature of the data set: Inhibition of LPS-induced ROS production in mouse BV-2 cells at 2.5 uM preincubated for 30 mins followed by LPS-stimulation and measured after 30 mins by DCFH-DA based fluorescence microplate reader analysis relative to control. The format is functional. To be noted: BV-2, 1 h, time 60 min.
A short description of data set [2]: Metal chelating activity assessed as Fe2+-compound complex formation by measuring increase in absorbance incubated for 2 hrs in the presence of FeSO4 by UV-Vis spectra analysis.
The test system of a further data set is PC-12. Nature of the data set: Neuroprotective activity against H2O2-induced cell damage in rat PC-12 cells assessed as increase in cell viability at 50 uM preincubated for 2 hrs followed by H2O2 addition and measured after 24 hrs by MTT assay (reference value: 50.3%). Type of data set: functional. Conditions: time 26 hrs.
Data set [3] deals with Mus musculus. Nature of the data set: Anti-parkinson's disease activity in MPTP-induced C57BL/6C mouse model assessed as decrease in MDA level in corpus striatum at 53.5 mg/kg, IG preadministered with MPTP for 5 days followed by compound administration for 3 weeks and measured 1 hrs post last dose by HPLC-ECD method. Type of data set: functional, organism-based.
Data set [4] addresses T1, Amine oxidase [flavin-containing] B (Homo sapiens, UniProt P27338).
T1 sequence (P27338 whole entry): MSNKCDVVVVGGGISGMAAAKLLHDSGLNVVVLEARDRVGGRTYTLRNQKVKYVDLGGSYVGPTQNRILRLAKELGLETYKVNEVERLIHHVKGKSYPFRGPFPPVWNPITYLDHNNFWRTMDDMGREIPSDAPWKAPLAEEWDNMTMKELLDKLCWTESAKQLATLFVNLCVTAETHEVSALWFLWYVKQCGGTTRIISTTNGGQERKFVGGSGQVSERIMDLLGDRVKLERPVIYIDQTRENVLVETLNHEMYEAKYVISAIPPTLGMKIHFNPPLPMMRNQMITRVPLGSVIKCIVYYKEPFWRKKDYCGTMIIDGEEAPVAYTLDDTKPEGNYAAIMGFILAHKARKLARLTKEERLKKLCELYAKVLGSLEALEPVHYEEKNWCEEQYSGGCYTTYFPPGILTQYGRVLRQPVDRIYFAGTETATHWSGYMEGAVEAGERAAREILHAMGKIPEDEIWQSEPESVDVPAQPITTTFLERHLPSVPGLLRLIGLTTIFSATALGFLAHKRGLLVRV
The data set is described as follows: Competitive inhibition of MAO-B (unknown origin) using kynuramine as substrate assessed as increase in Km at 0.007 to 0.028 uM by Lineweaver-Burk plot analysis. Conditions: dose 0.007-0.028 µM.

Data set [5] deals with T2, Amine oxidase [flavin-containing] A (Homo sapiens, UniProt P21397).
T2 sequence (P21397 whole entry): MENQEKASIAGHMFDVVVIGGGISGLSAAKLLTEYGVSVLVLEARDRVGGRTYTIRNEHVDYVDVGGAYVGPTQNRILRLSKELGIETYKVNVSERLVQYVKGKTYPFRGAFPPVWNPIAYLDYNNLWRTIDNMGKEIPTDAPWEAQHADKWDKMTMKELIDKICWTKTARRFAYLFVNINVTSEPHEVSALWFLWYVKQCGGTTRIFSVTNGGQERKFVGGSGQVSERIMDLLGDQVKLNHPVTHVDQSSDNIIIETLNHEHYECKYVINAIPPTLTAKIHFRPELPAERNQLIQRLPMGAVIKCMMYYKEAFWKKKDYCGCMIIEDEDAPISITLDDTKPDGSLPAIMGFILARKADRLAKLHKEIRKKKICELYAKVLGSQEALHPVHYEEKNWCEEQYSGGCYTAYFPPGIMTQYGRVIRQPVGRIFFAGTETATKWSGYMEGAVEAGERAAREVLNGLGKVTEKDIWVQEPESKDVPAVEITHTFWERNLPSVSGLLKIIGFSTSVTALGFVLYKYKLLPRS
Nature of the data set: Inhibition of MAO-A (unknown origin) using kynuramine as substrate at 10 uM preincubated for 30 mins followed by substrate addition and measured after 30 mins by fluorescence based analysis relative to control. Conditions: 0.5 h, time 60 min.

Consider `Oc1cc(OCc2ccc(F)cc2)ccc1CNc1ccccc1`, for which the result (with Mus musculus [1]; in data set [2]; with Mus musculus [3]) was Active. The inhibition at 2.5 µM in the data set with BV-2 was 21.2%. In addition, the Activity with PC-12 amounted to 77.2%. For the same molecule, in data set [4], the “inhibition (INH)” value is recorded as “Active”. For the same molecule, testing at 10 µM in data set [5] gave an inhibition of 43.7%.
